Active and inactive are the calls of the source.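 Rule for the calls: active = IC50 at or below 10 µM; inactive = IC50 above 10 µM.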 Some results are limits rather than exact numbers.

The assay concerns parental CHO-K1, ATP-induced calcium, Fluo-8 fluorescence. In words: nonselective Gq inhibitors in untransfected CHO cells – cell-based, fluorescence, dose response, artefact control for OX1R antagonist project, late-stage follow-up (AID 624408).
Take `CSc1cccc(NC(=O)C2CCCN2S(=O)(=O)c2ccc(Br)s2)c1` (stereo unspecified): the IC50 (commonly the concentration at which inhibition is half-maximal) is 20.4 µM (inactive).
As for `CCSC1=C(C#N)C(c2ccccc2Cl)C(C(=O)c2cccs2)C(O)(C(F)(F)F)N1` (stereo unspecified), the figure is 21.8 µM (inactive).
As for `CCn1c(SCC(=O)Nc2ccc3c(c2)c2ccccc2n3CC)nnc1-c1cnccn1`, the figure is > 59.6 µM (inactive); as for `CCOC(=O)N1CCN(C(=O)CSc2ccc(-c3ccccc3)nn2)CC1`, > 59.6 µM (inactive); as for `COc1cc(OC)c(-c2nc3ccccc3s2)cc1OC`, > 59.6 µM (inactive).
For `COc1cccc(/C=C2/Oc3ccccc3N(CC(=O)NCC3CCCO3)C2=O)c1` (stereo unspecified), the IC50 is > 59.6 µM (inactive).
As for `CC(=C/c1ccccc1)/C=C1/SC(N2CCOCC2)=NC1=O`, the figure is 52.1 µM (inactive); as for `Cc1cccc(NC(=O)[C@@H]2CCCN2S(=O)(=O)c2ccc(Cl)cc2)c1`, > 59.6 µM (inactive); as for `Cc1c(NS(=O)(=O)c2cccc(C(=O)OCC(=O)N(C)C3CCCCC3)c2)c(=O)n(-c2ccccc2)n1C`, > 59.6 µM (inactive).
For `O=c1cc(CN2CC(O)Cc3ccc4ccccc4c32)nc2sccn12` (stereo unspecified), the IC50 was 55.4 µM (inactive).
The value for `Cc1ccc(-c2csc3nnc(SCC(=O)Nc4nsc(-c5ccccc5)n4)n23)cc1` was > 59.6 µM (inactive).
As for `CCc1cc(C(=O)OCC(=O)N2CCC(c3ccccc3)=N2)sc1C`, the IC50 was > 59.6 µM (inactive).
On to `CCN(CC)c1ccc(NC(=O)Cn2c(C(C)NC(=O)c3ccccc3)nc3ccccc32)cc1` (stereo unspecified), for which the IC50 was > 59.6 µM (inactive).
As for `Fc1cccc(Nc2nc3ccccc3n3cnnc23)c1`, the figure is > 59.6 µM (inactive).
The value for `O=C(CSc1ccc(-c2ccccc2)nn1)c1cccs1` was > 59.6 µM (inactive).
The value for `CCc1cc2c(SCC(=O)N(CC)c3c(N)n(Cc4ccccc4)c(=O)[nH]c3=O)ncnc2s1` was > 59.6 µM (inactive).
Take `CN(N=Cc1cc([N+](=O)[O-])ccc1O)c1ccccc1`: the IC50 was > 59.6 µM (inactive).
As for `Cc1cccc(C=NNC(=O)c2cc3c(s2)-c2ccccc2CC3)c1`, the figure is > 59.6 µM (inactive).
As for `COCCCNC(=O)CCC(=O)NNc1nc2ccccc2c2nc(-c3ccccc3)nn12`, the figure is > 59.6 µM (inactive); as for `COc1ccc(OC)c(S(=O)(=O)NCC(c2ccco2)N2CCc3ccccc32)c1` (stereo unspecified), > 59.6 µM (inactive); as for `CCOc1ccccc1C(=O)Nc1ccc2nc3n(c(=O)c2c1)CCCCC3`, > 59.6 µM (inactive).
In the case of `Cc1ccccc1NC(=O)C1CCCN1S(=O)(=O)c1ccccc1C(F)(F)F` (stereo unspecified), the IC50 is > 59.6 µM (inactive).
The value for `CSc1cccc(N2CC(C(=O)NCCN3C(=O)S/C(=C\c4cccnc4)C3=O)CC2=O)c1` (stereo unspecified) was > 59.6 µM (inactive); that for `O=C(CN1C(=O)/C(=C\c2cccc(Br)c2)Oc2ccccc21)NCC1CCCO1` (stereo unspecified) was > 59.6 µM (inactive).
The value for `Cc1cc(Cl)ccc1OCCCC(=O)NCCN1C(=O)S/C(=C\c2cccnc2)C1=O` was 7.22 µM; that for `Cc1noc(C)c1COc1ccc(C(=O)OCC(=O)N2CC(=O)Nc3ccccc32)cc1` was > 59.6 µM (inactive).

For the origin of these results see PubChem BioAssay AID624408 (The Scripps Research Institute Molecular Screening Center, 2012).
